Source: patent publication US20130030012A1, “COMPOUNDS” (Glaxo Group Limited, priority 2011, published 2013)
Like-named read-outs stand apart in the source and are kept apart here.

What was measured:
[1] = biological target: T1, Lp-PLA2 in human plasma (Homo sapiens, UniProt Q13093); assay: Lp-PLA2 human plasma assay (Thio-PAF assay); assay type: biochemical; conditions: pooled human plasma; read-out: pIC50 values in the thio-PAF assay (converted)
T1 construct: from tissue; host or cells: pooled human plasma
T1 sequence (Q13093 22-441): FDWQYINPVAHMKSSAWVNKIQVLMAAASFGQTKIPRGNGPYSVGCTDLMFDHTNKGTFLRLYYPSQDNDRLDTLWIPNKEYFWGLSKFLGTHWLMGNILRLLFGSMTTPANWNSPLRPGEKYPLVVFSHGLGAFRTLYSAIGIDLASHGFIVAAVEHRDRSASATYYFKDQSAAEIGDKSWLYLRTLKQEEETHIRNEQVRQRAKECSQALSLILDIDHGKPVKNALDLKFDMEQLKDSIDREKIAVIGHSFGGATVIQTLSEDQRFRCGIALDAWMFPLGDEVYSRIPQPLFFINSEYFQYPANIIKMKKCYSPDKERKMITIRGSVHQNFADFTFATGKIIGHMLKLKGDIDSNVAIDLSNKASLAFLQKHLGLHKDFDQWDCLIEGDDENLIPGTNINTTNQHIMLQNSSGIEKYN
From the text: The human plasma assay utilizes a thioester analog of PAF (phosphatidylcholine), where hydrolysis yields to the formation of a phospholipid containing a free thiol group. The amount of thiol is quantitated continuously by reacting with CPM (7-diethylamino-3-(4′-maleimidylphenyl)-4-methylcoumarin), a maleimide which increases in fluoresence after Michael addition of thiols. This assay may detect the activity of Lp-PLA2 in human plasma, as determined by specific inhibition by Lp-PLA2 inhibitors.
The thio-PAF assay was run as a quenched 15 μL assay. Compounds source plate was prepared by making 1:3 (by volume) serial dilution of the compounds into pure DMSO on 384-well microplate. 0.01 μL of compounds on compound source plate were transferred to 384 well Greiner 784076 (black) low-volume plates by ECHO liquid dispenser. 8 μL pooled human plasma, which was previously aliquoted and frozen, was added. Plates were centrifuged for 10 sec at 500 rpm. After 30 minutes preincubation, 2 μL of substrate solution comprising 2.5 mM 2-thio-PAF [from ethanol stock], […] CPM [from a DMSO stock] and 3.2 mM NEM (N-ethylmaleimide) [made fresh daily in DMSO] in assay buffer of 50 mM HEPES, pH 7.4, 150 mM NaCl, 1 mM CHAPS was added to 384 well Greiner 784076 (black) low-volume plates by BRAVO liquid handling station. After 2 mins, reaction was quenched with 5 μL of 5% aqueous trifluoroacetic acid (TFA). Plates were covered to protect from light and incubated for 40 min at room temperature. Plates were read at ex: 380/em: 485 using—Envision microplate reader. pIC50 data, curve and QC analysis was conducted by using XLFit module in Excel.

[2] = biological target: T2, recombinant human Lp-PLA2 (Homo sapiens, UniProt Q13093); assay: Recombinant human Lp-PLA2 assay (rhLp-PLA2, PED6 assay); assay type: biochemical; conditions: upper limit for pIC50 in this assay is 9.3
T2 sequence (Q13093 22-441): T1 sequence (Q13093 22-441)
From the text: (1) Recombinant Human Lp-PLA2 Assay (rhLp-PLA2) (Also Referred to as “PED6” Assay)
N-((6-(2,4-dinitrophenyl)amino)-hexanoyl)-2-(4,4-difluoro-5,7-dimethyl-4-bora-3a,4a-diaza-s-indacene-3-pentanoyl)-1-hexadecanoyl-sn-glycero-3-phosphoethanolamine, triethylammonium salt (PED6) is a commercially available fluorescently-labeled phospholipid, which is commercially available from Invitrogene and Molecular Probes. There is a quenching […] and a Bodipy fluorescein (FL) group in the sn2 position. Upon cleavage with Lp-PLA2, the Bodipy FL group is liberated and then may result in an increase in fluorescence. Inhibitors of Lp-PLA2 therefore prevent this cleavage and no fluorescent increase is observed.
The PED6 assay was run as an unquenched 10 μL assay. The source plate containing the compounds to be tested was prepared by making 1:3 (by volume) serial dilution of the compounds within DMSO on 384-well microplate. Then, 0.01 μL of the compounds on compound source plate were transferred into 384 well Greiner 784076 (black) plates using ECHO liquid dispenser. 5 μL of recombinant human Lp-PLA2 enzyme (4 nM (or 110 pM) rhLp-PLA2 in assay buffer of 50 mM HEPES, pH 7.4, 150 mM NaCl, 1 mM CHAPS) was added to each well of the plate. Plates were centrifuged for 10 sec at 500 rpm. After 30 minutes preincubation, 5 μL of substrate ([…] (or 5 μM) PED6 [from 5 mM DMSO stock] in assay buffer of 50 mM HEPES, pH 7.4, 150 mM NaCl, 1 mM CHAPS) was added to 384 well Greiner 784076 (black) plates. Plates were centrifuged for 10 sec at 500 rpm. The plate was covered to protect it from light and incubated for 20 min at room temperature. The plates were read for fluorescence intensity at ex: 480/em: 540 using ViewLux microplate imager for Envision spectrofluoroimeters pIC50 data, curve and QC analysis was conducted by using XL fit module in Excel.
The compounds described below were tested generally according to the PED6 assay described above.

[3] = read-out: pIC50 values in the PED6 assay (converted)
[4] = Table 1, read-out: rhLp-PLA2 (PED6 assay) (pIC50) (converted)

In the case of `CN1CCCn2c1cc(OCc1ccc(Oc3ccc(F)c(Cl)c3)c(F)c1)nc2=O` [Example 15, 8-((4-(3-chloro-4-fluorophenoxy)-3-fluorobenzyl)oxy)-1-methyl-3,4-dihydro-1H-pyrimido[1,6-a]pyrimidin-6(2H)-one], the IC50 [1] is reported as at most 100 nM and the IC50 [2, 3] is reported as at most 10 nM.

`CN1CCCn2c1cc(OCc1ccc(Oc3cccc(Cl)c3)c(F)c1)nc2=O` [Example 16, 8-((4-(3-chlorophenoxy)-3-fluorobenzyl)oxy)-1-methyl-3,4-dihydro-1H-pyrimido[1,6-a]pyrimidin-6(2H)-one] gave an IC50 [1] of at most 100 nM and an IC50 [2, 3] of at most 10 nM.

`CN1CCCn2c1cc(OCc1ccc(Oc3ccc(F)c(Cl)c3)cc1)nc2=O` [Example 17, 8-((4-(3-chloro-4-fluorophenoxy)benzyl)oxy)-1-methyl-3,4-dihydro-1H-pyrimido[1,6-a]pyrimidin-6(2H)-one] was tested, and the IC50 [1] was at most 1000 nM and the IC50 [2, 3] was at most 10 nM.

With `CN1CCCn2c1cc(OCc1cc(F)c(F)c(F)c1)nc2=O` [Example 21, 1-methyl-8-((3,4,5-trifluorobenzyl)oxy)-3,4-dihydro-1H-pyrimido[1,6-a]pyrimidin-6(2H)-one] the IC50 [1] was at most 100 nM, the IC50 [2, 4] was 2 nM and the IC50 [2, 3] was at most 10 nM.

For `CN1CCCn2c1cc(OCc1ccc(Oc3cccc(F)c3)c(F)c1)nc2=O` [Example 25, 8-((3-fluoro-4-(3-fluorophenoxy)benzyl)oxy)-1-methyl-3,4-dihydro-1H-pyrimido[1,6-a]pyrimidin-6(2H)-one], the IC50 [1] was at most 1000 nM and the IC50 [2, 3] was at most 10 nM.

Compound `CN1CCCn2c1cc(OCc1ccc(Oc3cccc(C(F)(F)F)c3)c(F)c1)nc2=O` [Example 28, 8-((3-fluoro-4-(3-(trifluoromethyl)phenoxy)benzyl)oxy)-1-methyl-3,4-dihydro-1H-pyrimido[1,6-a]pyrimidin-6(2H)-one] has an IC50 [1] of at most 100 nM, an IC50 [2, 4] of 2.51 nM and an IC50 [2, 3] of at most 10 nM.

Work on `CN1CCCn2c1cc(OCc1ccc(Oc3ccc(C(F)(F)F)cc3)c(C#N)c1)nc2=O` [Example 29, 5-(((1-methyl-6-oxo-2,3,4,6-tetrahydro-1H-pyrimido[1,6-a]pyrimidin-8-yl)oxy)methyl)-2-(4-(trifluoromethyl)phenoxy)benzonitrile] yielded an IC50 [1] of at most 100 nM and an IC50 [2, 3] of at most 10 nM.

Work on `CN1CCCn2c1cc(OCc1ccc(Oc3ccc(F)cc3)c(C#N)c1)nc2=O` [Example 30, 2-(4-fluorophenoxy)-5-(((1-methyl-6-oxo-2,3,4,6-tetrahydro-1H-pyrimido[1,6-a]pyrimidin-8-yl)oxy)methyl)benzonitrile] yielded an IC50 [1] of at most 100 nM and an IC50 [2, 3] of at most 10 nM.

For `CN1CCCn2c1cc(OCc1ccc(Oc3cccc(C(F)(F)F)n3)c(F)c1)nc2=O` [Example 32, 8-((3-fluoro-4-((6-(trifluoromethyl)pyridin-2-yl)oxy)benzyl)oxy)-1-methyl-3,4-dihydro-1H-pyrimido[1,6-a]pyrimidin-6(2H)-one], the IC50 [1] was at most 1000 nM and the IC50 [2, 3] was at most 10 nM.

For `CN1CCCn2c1cc(OCc1ccc(Oc3ccc(F)c(F)c3)c(C#N)c1)nc2=O` [Example 34, 2-(3,4-difluorophenoxy)-5-(((1-methyl-6-oxo-2,3,4,6-tetrahydro-1H-pyrimido[1,6-a]pyrimidin-8-yl)oxy)methyl)benzonitrile], the IC50 [1] was at most 100 nM and the IC50 [2, 3] was at most 10 nM.

`CC(C)N1CCCn2c1cc(OCc1ccc(Oc3ccc(C(F)(F)F)nc3)c(F)c1)nc2=O` [Example 38, 8-((3-fluoro-4-((6-(trifluoromethyl)pyridin-3-yl)oxy)benzyl)oxy)-1-isopropyl-3,4-dihydro-1H-pyrimido[1,6-a]pyrimidin-6(2H)-one] was tested, and the IC50 [1] was at most 100 nM and the IC50 [2, 3] was at most 10 nM.

Compound `CC(C)N1CCCn2c1cc(OCc1ccc(F)c(F)c1)nc2=O` [Example 40, 8-((3,4-difluorobenzyl)oxy)-1-isopropyl-3,4-dihydro-1H-pyrimido[1,6-a]pyrimidin-6(2H)-one] has an IC50 [1] of at most 100 nM, an IC50 [2, 4] of 10 nM and an IC50 [2, 3] of at most 10 nM.

Work on `CC(C)N1CCCn2c1cc(OCc1cc(F)c(F)c(F)c1)nc2=O` [Example 42, isopropyl-8-((3,4,5-trifluorobenzyl)oxy)-3,4-dihydro-1H-pyrimido[1,6-a]pyrimidin-6(2H)-one] yielded an IC50 [1] of at most 100 nM, an IC50 [2, 4] of 5.01 nM and an IC50 [2, 3] of at most 10 nM.

Work on `N#Cc1cc(COc2cc3n(c(=O)n2)CCCN3)ccc1Oc1cccc(C(F)(F)F)c1` [Example 53, 5-(((6-oxo-2,3,4,6-tetrahydro-1H-pyrimido[1,6-a]pyrimidin-8-yl)oxy)methyl)-2-(3-(trifluoromethyl)phenoxy)benzonitrile] yielded an IC50 [1] of at most 100 nM, an IC50 [2, 4] of 1 nM and an IC50 [2, 3] of at most 1 nM.

Work on `CN1CCCn2c1cc(OCCc1ccc(Oc3ccc(C(F)(F)F)c(Cl)c3)cn1)nc2=O` [Example 54, 8-(2-(5-(3-chloro-4-(trifluoromethyl)phenoxy)pyridin-2-yl)ethoxy)-1-methyl-3,4-dihydro-1H-pyrimido[1,6-a]pyrimidin-6(2H)-one] yielded an IC50 [1] of at most 1000 nM and an IC50 [2, 3] of at most 10 nM.

`CN1CCCn2c1cc(OCCc1ccc(Oc3ccc(Cl)c(C(F)(F)F)c3)cc1)nc2=O` [Example 55, 8-(4-(4-chloro-3-(trifluoromethyl)phenoxy)phenethoxy)-1-methyl-3,4-dihydro-1H-pyrimido[1,6-a]pyrimidin-6(2H)-one] showed an IC50 [1] of at most 100 nM and an IC50 [2, 3] of at most 1 nM.

Compound `Cc1ccc(Oc2ccc(COc3cc4n(c(=O)n3)CCCN4C)cc2C#N)cn1` [Example 56, 5-(((1-methyl-6-oxo-2,3,4,6-tetrahydro-1H-pyrimido[1,6-a]pyrimidin-8-yl)oxy)methyl)-2-((6-methylpyridin-3-yl)oxy)benzonitrile] has an IC50 [1] of at most 100 nM and an IC50 [2, 3] of at most 1 nM.

In the case of `CN1CCCn2c1cc(OCc1ccc(Oc3cc(F)cc(F)c3)c(F)c1)nc2=O` [Example 58, 8-((4-(3,5-difluorophenoxy)-3-fluorobenzyl)oxy)-1-methyl-3,4-dihydro-1H-pyrimido[1,6-a]pyrimidin-6(2H)-one], the IC50 [1] is reported as at most 100 nM, the IC50 [2, 4] is reported as under 0.501 nM and the IC50 [2, 3] is reported as at most 1 nM.

`CN1CCCn2c1cc(OCc1ccc(Oc3ccc(F)cc3)c(F)c1)nc2=O` [Example 74, 8-((3-fluoro-4-(4-fluorophenoxy)benzyl)oxy)-1-methyl-3,4-dihydro-1H-pyrimido[1,6-a]pyrimidin-6(2H)-one] was tested, and the IC50 [1] was at most 1000 nM and the IC50 [2, 3] was at most 10 nM.

For `O=c1nc(OCc2cc(F)c(Oc3ccc(C(F)(F)F)nc3)c(F)c2)cc2n1CCCN2` [Example 75, 8-((3,5-difluoro-4-((6-(trifluoromethyl)pyridin-3-yl)oxy)benzyl)oxy)-3,4-dihydro-1H-pyrimido[1,6-a]pyrimidin-6(2H)-one], the IC50 [1] was at most 100 nM, the IC50 [2, 4] was under 0.501 nM and the IC50 [2, 3] was at most 1 nM.
